Laboratory results reported in patent US9233107B2, “Compositions and methods for the treatment of progressive multifocal leukoencephalopathy (PML)” (Biogen MA Inc., priority 2007, dated 2016).
Like-named read-outs stand apart in the source and are kept apart here.

Columns and labels:
JCV strain Mad1/SVEΔ = test: microbe, parasite or virus in culture; type: cell-based, JC polyomavirus (JCV); settings: for % Inhibition (total #JCV+) @10 uM: SV40 transformed glial cells, Mad-1/SVEΔ JCV; for % Inhibition (% JCV+) @10 uM: infection rate, JCV+ cells normalised to total cells
Description: (§1) SV40 transformed glial cells were seeded in 10% FBS media. The cells were seeded at 2000 cells per well in 75 μl of media per well. On day 2, the media was removed and replaced by 35 μl of a 1× concentrated drug aliquot combined with a 100× diluted JCV Turbo aliquot in 35 μl of 2% FBS media (JCV Turbo is a hybrid Mad-1/SVEΔ virus constructed by insertion of the regulatory region of SV40 into the regulatory region of the Mad-1 strain of JCV (Mad-1/SVE), Vacante et al., Virology 1989, 170: 353-361). The cells were incubated for an hour, after which another 65 uL aliquot of 1× concentrated drug in 2% FBS was added. On day 5 the cells were stained with DAPI (for total cell number) and with a mouse monoclonal antibody against SV40 VP1, which cross reacts with the JCV VP1 protein. […] The information is tabulated as % inhibition (as measured by the number and percentage of JCV positive cells).
(§2) JCV Infectivity Assay: SVG-A cells were seeded at 2,000 cells/well/0.075 ml of culture media in 96 flat-bottom well plate (Corning, N.Y.). The next day compounds were prepared in assay medium (2% heat-inactivated fetal bovine serum, 4 mM L-glutamine, 1×MEM). A master viral plate was prepared by mixing equal volumes of [2×] compound and [2×] diluted virus for the final 1× concentration of the compound and the virus. The plate containing cells was gently inverted and shaken to remove media. From the master plate, 0.035 ml compound/virus was added to designated wells. The cells were incubated with the compound/virus mixture for 60 minutes in a humidified 37° C. CO2 incubator. At that time final concentration of the drug in media was added to designated wells to bring the final volume up to 0.1 ml/well. The plates were incubated for an additional three days, the cells were then washed once with 1×PBS, and fixed in 2% paraformaldehyde/1×PBS for 30 minutes at room temperature. The fixative was removed and the cells were solubilized with 0.5% Triton X100 in PBS for an additional 30 minutes. Infection by Mad-1/SVEΔ virus was visualized by staining with PAB597, a monoclonal antibody against the major capsid protein VP1, the cells were incubated with 0.05 ml of PAB597 (2 μg/ml in 1×PBS) for 60 minutes at 37° C. Following a wash step with 1×PBS, primary antibody was detected with an Alexa-Fluor 488-labeled goat anti-mouse secondary antibody at 1:100 dilution in 1×PBS, cells were counterstained with DAPI at 1 μg/ml (0.05 ml/well) for 30 minutes at 37° C. Cells were washed with 1×PBS and 0.1 ml 1×PBS was added to cells. Field images of each well were acquired and analyzed using the Cellomics ArrayScan (Thermo Scientific Inc, Waltham, Mass.) using the Target Activation software. […] The cells are seeded at 4,000 cells/well/0.075 ml of culture media in 96 flat-bottom well plate (Corning). The culture media is used for the infection. The length of the infection is six to ten days (instead of the three days for SVG-A cells).
Calculations: The rate of JCV infection was calculated by normalizing the number of JCV infected cells by the total number of nucleated cells as % JCV^+ cells=((total # VP1^+ cells)/(total # DAPI^+ cells))*100%. The % of viral inhibition by a compound was calculated using a JCV infection rate instead of using total number of JCV infected cells (e.g., VP1^+ cells).

SVG-A cells = test: Total cell number (DAPI+ events) / cytotoxicity in the JCV infectivity assay; settings: for % Inhibition total Cell Number @10 uM: cytotoxicity, DAPI count; for inhibition at 10 µM: Homo sapiens, SVG-A, read-out: % Inhibition total Cell Number @10 uM
Description: as §1, §2
The primary assay employed an SVG-A cell line and JCV Mad1/SVEΔ viral strain.

[1] = JC polyomavirus, Glial cell, read-out: % Inhibition (total #JCV+) @10 uM
[2] = JC polyomavirus, SVG-A, read-out: % Inhibition (% JCV+) @10 uM

Row | Compound | inhibition at 10 µM (JCV strain Mad1/SVEΔ; [1]) | inhibition at 10 µM (JCV strain Mad1/SVEΔ; [2]) | inhibition at 10 µM (SVG-A cells) | also measured
1 | COc1ccc(-c2cc(=O)c3c(O)c(OC)c(OC)c(OC)c3o2)cc1OC [DEMETHYLNOBILETIN] | – | – | – | % Inhibition (total #JCV+) @10 uM (JCV strain Mad1/SVEΔ): 38%; % Inhibition (% JCV+) @10 uM (JCV strain Mad1/SVEΔ): 20%; % Inhibition total Cell Number @10 uM (SVG-A cells): 20%
2 | O=c1cc(-c2ccccc2)oc2cccc(O)c12 [PRIMULETIN] | – | – | – | % Inhibition (total #JCV+) @10 uM (JCV strain Mad1/SVEΔ): 40%; % Inhibition (% JCV+) @10 uM (JCV strain Mad1/SVEΔ): 29%; % Inhibition total Cell Number @10 uM (SVG-A cells): 12%
3 | CCCCOc1cc(CC2CNC(=O)N2)ccc1OC (stereo not shown) [4-(3-BUTOXY-4-METHOXYBENZYL)IMIDAZOLIDIN-2-ONE] | 48% | 42% | 12% | –
4 | OCCN(CCO)c1nc(N2CCCCC2)c2nc(N(CCO)CCO)nc(N3CCCCC3)c2n1 [DIPYRIDAMOLE] | 24% | 22% | 3% | –
5 | COc1cc([C@@H]2c3cc4c(cc3[C@H](O)[C@H]3COC(=O)[C@@H]23)OCO4)cc(OC)c1OC [PICROPODOPHYLLOTOXIN] | 19% | 22% | -1% | –
6 | C[C@H]1CC[C@]2(NC1)O[C@H]1C[C@H]3[C@@H]4CC[C@H]5C[C@@H](O[C@@H]6O[C@H](CO)[C@H](O[C@@H]7O[C@H](CO)[C@@H](O)[C@H](O[C@@H]8OC[C@@H](O)[C@H](O)[C@H]8O)[C@H]7O[C@@H]7O[C@H](CO)[C@@H](O)[C@H](O)[C@H]7O)[C@H](O)[C@H]6O)CC[C@]5(C)[C@H]4CC[C@]3(C)[C@H]1[C@@H]2C [TOMATINE] | 40% | 29% | 12% | –
7 | CC(=O)OCC(=O)[C@@]12OC3(CCCC3)O[C@@H]1C[C@H]1[C@@H]3CCC4=CC(=O)C=C[C@]4(C)[C@@]3(F)[C@@H](O)C[C@@]12C [AMCINONIDE] | 16% | 25% | -11% | –
8 | COc1ccc2c(c1)c(CC(=O)OCC(=O)O)c(C)n2C(=O)c1ccc(Cl)cc1 [ACEMETACIN] | 32% | 38% | -8% | –
9 | O=C(O)c1cc([N+](=O)[O-])ccc1NCCCc1ccccc1 [5-NITRO-2-PHENYLPROPYLAMINOBENZOIC ACID] | – | – | – | % Inhibition (total #JCV+) @10 uM (JCV strain Mad1/SVEΔ): 14%; % Inhibition (% JCV+) @10 uM (JCV strain Mad1/SVEΔ): 21%; % Inhibition total Cell Number @10 uM (SVG-A cells): −9%
10 | C[C@@H]1CC[C@@]2(OC1)O[C@H]1C[C@H]3[C@@H]4CC[C@H]5C[C@@H](O)CC[C@]5(C)C4=CC[C@]3(C)[C@H]1[C@@H]2C [3beta-HYDROXYISOALLOSPIROST-9(11)-ENE] | – | – | – | % Inhibition (total #JCV+) @10 uM (JCV strain Mad1/SVEΔ): 25%; % Inhibition (% JCV+) @10 uM (JCV strain Mad1/SVEΔ): 21%; % Inhibition total Cell Number @10 uM (SVG-A cells): 3%
11 | CN(CCOc1ccc(CC2SC(=O)NC2=O)cc1)c1ccccn1 (stereo not shown) [ROSIGLITAZONE] | 22% | 23% | -1% | –
12 | COc1cc(C)c(C(=O)Oc2cc(C)c(C(=O)O)c(O)c2C)c(OC)c1C [DIFFRACTIC ACID] | – | – | – | % Inhibition (total #JCV+) @10 uM (JCV strain Mad1/SVEΔ): 44%; % Inhibition (% JCV+) @10 uM (JCV strain Mad1/SVEΔ): 36%; IC50 (JCV strain Mad1/SVEΔ; anti-JCV, inhibition of % JCV infected cells by 50%, full dose response, read-out: IC50): 14.4 µM; CC50 (SVG-A cells): > 40 µM; % Inhibition total Cell Number @10 uM (SVG-A cells): 13%
13 | CCCCCCCCCCCCCCCC(=O)OC[C@@H](NC(=O)C(Cl)Cl)[C@H](O)c1ccc([N+](=O)[O-])cc1 [CHLORAMPHENICOL PALMITATE] | 20% | 29% | -13% | –
14 | COc1ccc([C@@H](C)C(=O)c2ccc(O)cc2O)cc1 [(R)-ANGOLENSIN] | – | – | – | % Inhibition (total #JCV+) @10 uM (JCV strain Mad1/SVEΔ): 18%; % Inhibition (% JCV+) @10 uM (JCV strain Mad1/SVEΔ): 22%; % Inhibition total Cell Number @10 uM (SVG-A cells): −5%
15 | Nc1nc2ccc(OC(F)(F)F)cc2s1 [RILUZOLE] | 16% | 26% | – | –
16 | C[C@H]1C[C@H]2[C@@H]3CCC4=CC(=O)C=C[C@]4(C)[C@@]3(F)[C@@H](O)C[C@]2(C)[C@@]1(O)C(=O)CO [BETAMETHASONE] | 34% | 24% | 14% | –
17 | CC/C(=C(/CC)c1ccc(O)cc1)c1ccc(O)cc1 [DIETHYLSTILBESTROL] | 42% | 29% | 18% | –
18 | CC1=CCc2c(cc3oc(C)cc(=O)c3c2O)OC1 [PTAEROXYLIN] | 32% | 22% | 11% | –

Row | Compound | inhibition at 10 µM (JCV strain Mad1/SVEΔ; [1]) | inhibition at 10 µM (JCV strain Mad1/SVEΔ; [2]) | inhibition at 10 µM (SVG-A cells) | also measured
19 | CC(C)=CCc1c(O)cc2oc(C)cc(=O)c2c1O [PEUCENIN] | 21% | 27% | -7% | –
20 | Cc1c(Cl)cccc1Nc1ccccc1C(=O)O [TOLFENAMIC ACID] | 61% | 53% | 18% | –
21 | O=S1OCC2C(CO1)C1(Cl)C(Cl)=C(Cl)C2(Cl)C1(Cl)Cl (stereo not shown) [ENDOSULFAN] | 54% | 44% | 19% | –
22 | COc1cc2c(cc1-c1cc3cc4ccoc4cc3oc1=O)OCO2 [PACHYRRHIZIN] | – | – | – | % Inhibition (total #JCV+) @10 uM (JCV strain Mad1/SVEΔ): 45%; % Inhibition (% JCV+) @10 uM (JCV strain Mad1/SVEΔ): 34%; % Inhibition total Cell Number @10 uM (SVG-A cells): 17%
23 | Nc1ccn(C[C@@H](CO)OCP(=O)(O)O)c(=O)n1 [cidofovir] | – | – | – | percent inhibition of infection rate (% JCV+ cells), in words (JCV strain Mad1/SVEΔ; FIG. 3D, SVG-A cells): not significant; inhibition of total number of cells in culture, in words (SVG-A cells): inhibited the total number of cells in culture to the same degree
24 | COC(=O)c1c(C)c2c(c(C)c1O)OC(=O)c1c(C)c(Cl)c(O)c(Cl)c1O2 [LEOIDIN] | 14% | 21% | -9% | –
25 | O=c1oc2ccccc2c(O)c1Cc1c(O)c2ccccc2oc1=O [DICUMAROL] | 36% | 35% | 3% | –
26 | NCCOB(c1ccccc1)c1ccccc1 [AMINOETHOXYDIPHENYLBORANE] | 25% | 21% | 3% | –
27 | COc1cc(/C=C/C(=O)N2CCC=CC2=O)cc(OC)c1OC [PIPLARTINE] | 21% | 27% | -7% | –
28 | GINKGOLIC ACID | – | – | – | % Inhibition (total #JCV+) @10 uM (JCV strain Mad1/SVEΔ): 33%; % Inhibition (% JCV+) @10 uM (JCV strain Mad1/SVEΔ): 39%; % Inhibition total Cell Number @10 uM (SVG-A cells): −8%
29 | CCOc1nc2cccc(C(=O)OC(C)OC(=O)OC3CCCCC3)c2n1Cc1ccc(-c2ccccc2-c2nn[nH]n2)cc1 (stereo not shown) [CANDESARTAN CILEXTIL] | – | – | – | % Inhibition (total #JCV+) @10 uM (JCV strain Mad1/SVEΔ): 54%; % Inhibition (% JCV+) @10 uM (JCV strain Mad1/SVEΔ): 44%; % Inhibition total Cell Number @10 uM (SVG-A cells): 19%
30 | COc1cc2c(cc1-c1coc3c4c(c(OC)cc3c1=O)OC(C)(C)C=C4)OCO2 [ICHTHYNONE] | 34% | 24% | 14% | –
31 | C=C[C@@H]1C2=CCOC(=O)C2=CO[C@H]1O[C@@H]1O[C@H](CO)[C@@H](O)[C@H](O)[C@H]1O [GENTIOPICROSIDE] | 32% | 22% | 11% | –
32 | c1ccc2[nH]c(-c3cscn3)nc2c1 [THIABENDAZOLE] | 19% | 22% | -1% | –
33 | O=c1c2ccccc2oc2ccccc12 [XANTHONE] | 39% | 39% | 1% | IC50 (JCV strain Mad1/SVEΔ; JC polyomavirus, SVG-A): 16.8 µM
34 | POLYMYXIN B SULFATE | – | – | – | % Inhibition (total #JCV+) @10 uM (JCV strain Mad1/SVEΔ): 36%; % Inhibition (% JCV+) @10 uM (JCV strain Mad1/SVEΔ): 41%; % Inhibition total Cell Number @10 uM (SVG-A cells): −8%
35 | COc1ccc2cc(CCC(C)=O)ccc2c1 [NABUMETONE] | 20% | 23% | -2% | –
36 | O=C(O)c1ccccc1Nc1cccc(C(F)(F)F)c1 [FLUFENAMIC ACID] | 37% | 26% | 14% | –
